{
  "source": "ChEMBL document CHEMBL1131074",
  "about": "“Conformational analysis of ketolide, conformations of RU 004 in solution and bound to bacterial ribosomes” (J Med Chem, 1998)",
  "assay_type_in_all_cases": "functional, organism-based",
  "key": {"Escherichia coli [1]": {"test_system": "Escherichia coli", "assay": "Pka2 value was evaluated in Escherichia coli MRE600 strain 70S ribosome (Observation 2)"}, "Escherichia coli [2]": {"test_system": "Escherichia coli", "assay": "Pka1 value was evaluated in Escherichia coli MRE600 strain 70S ribosome (Observation 2)"}, "Escherichia coli [3]": {"test_system": "Escherichia coli", "assay": "Pka2 value was evaluated in Escherichia coli MRE600 strain 70S ribosome (Observation 1)"}, "Escherichia coli [4]": {"test_system": "Escherichia coli", "assay": "Pka1 value was evaluated in Escherichia coli MRE600 strain 70S ribosome (Observation 1)"}},
  "data": [
    {"smiles": "CC[C@H]1OC(=O)C(C)C(=O)[C@H](C)[C@@H](O[C@@H]2O[C@H](C)C[C@H](N(C)C)[C@H]2O)[C@@](C)(OC)C[C@@H](C)C(=O)[C@H](C)[C@H]2N(NCCCc3ccnc4ccccc34)C(=O)O[C@]12C", "note": "(some centres undefined)", "values": [
      {"measurement": "pKa2", "setting": "Escherichia coli [1]", "result": 6},
      {"measurement": "pKa1", "setting": "Escherichia coli [2]", "result": 3},
      {"measurement": "pKa2", "setting": "Escherichia coli [3]", "result": 8},
      {"measurement": "pKa1", "setting": "Escherichia coli [4]", "result": 5}
    ]}
  ]
}
